As a reminder, the AC50 is the midpoint of the concentration-response curve, whichever way the signal moves. High values mean weaker potency, low ones greater potency.

One assay has as its target T1, B2 bradykinin receptor (Homo sapiens, UniProt P30411).
T1 sequence (P30411 whole entry): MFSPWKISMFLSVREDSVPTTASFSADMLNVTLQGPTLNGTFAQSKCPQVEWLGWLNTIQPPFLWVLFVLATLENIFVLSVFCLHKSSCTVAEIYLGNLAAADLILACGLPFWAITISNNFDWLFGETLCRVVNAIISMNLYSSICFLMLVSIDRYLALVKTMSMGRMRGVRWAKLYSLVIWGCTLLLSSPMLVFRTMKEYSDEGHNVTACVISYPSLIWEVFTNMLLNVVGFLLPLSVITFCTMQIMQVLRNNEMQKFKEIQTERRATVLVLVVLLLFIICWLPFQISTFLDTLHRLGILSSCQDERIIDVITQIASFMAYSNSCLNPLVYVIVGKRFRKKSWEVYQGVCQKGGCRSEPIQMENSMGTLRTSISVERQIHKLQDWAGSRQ

Assay [1] addresses Sodium-dependent serotonin transporter (Homo sapiens, UniProt P31645).
For assay [2], the target named is T2, Alpha-2A adrenergic receptor (Homo sapiens, UniProt P08913).
T2 sequence (P08913 whole entry): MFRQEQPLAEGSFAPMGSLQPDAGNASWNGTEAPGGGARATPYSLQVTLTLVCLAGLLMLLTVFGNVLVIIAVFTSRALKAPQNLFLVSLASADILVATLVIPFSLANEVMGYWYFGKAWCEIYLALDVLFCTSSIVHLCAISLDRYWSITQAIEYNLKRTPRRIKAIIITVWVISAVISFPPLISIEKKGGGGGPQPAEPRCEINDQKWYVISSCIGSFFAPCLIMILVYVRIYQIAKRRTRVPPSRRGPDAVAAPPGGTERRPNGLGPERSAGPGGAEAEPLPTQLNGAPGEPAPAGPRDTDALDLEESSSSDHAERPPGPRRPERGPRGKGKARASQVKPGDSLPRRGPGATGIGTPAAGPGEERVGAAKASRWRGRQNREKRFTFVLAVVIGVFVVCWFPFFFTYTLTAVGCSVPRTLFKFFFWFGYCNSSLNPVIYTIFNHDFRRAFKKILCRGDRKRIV
It counts as functional, cell-based.

Assay [3] has as its target T3, 5-hydroxytryptamine receptor 2B (Homo sapiens, UniProt P41595). It counts as functional, cell-based.
For assay [4], the target named is T4, Amine oxidase [flavin-containing] A (Homo sapiens, UniProt P21397).
T4 sequence (P21397 whole entry): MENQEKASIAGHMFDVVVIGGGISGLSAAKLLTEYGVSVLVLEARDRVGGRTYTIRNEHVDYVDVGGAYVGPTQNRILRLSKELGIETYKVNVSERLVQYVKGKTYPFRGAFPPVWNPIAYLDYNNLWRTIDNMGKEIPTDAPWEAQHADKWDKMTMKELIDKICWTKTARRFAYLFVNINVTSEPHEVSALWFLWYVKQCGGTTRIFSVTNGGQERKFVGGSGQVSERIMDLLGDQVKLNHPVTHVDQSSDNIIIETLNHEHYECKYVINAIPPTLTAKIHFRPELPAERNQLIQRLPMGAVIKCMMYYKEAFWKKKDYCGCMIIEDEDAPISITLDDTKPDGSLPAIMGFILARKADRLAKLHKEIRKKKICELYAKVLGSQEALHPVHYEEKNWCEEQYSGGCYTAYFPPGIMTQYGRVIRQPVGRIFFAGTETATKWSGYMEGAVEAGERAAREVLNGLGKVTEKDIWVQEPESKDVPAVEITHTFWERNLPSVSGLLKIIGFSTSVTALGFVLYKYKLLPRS
It is filed as functional.

A further assay has as its target Cannabinoid receptor 1 (Homo sapiens, UniProt P21554).
In assay [5] the target is T5, Gastric inhibitory polypeptide receptor (Homo sapiens, UniProt P48546).
T5 sequence (P48546 whole entry): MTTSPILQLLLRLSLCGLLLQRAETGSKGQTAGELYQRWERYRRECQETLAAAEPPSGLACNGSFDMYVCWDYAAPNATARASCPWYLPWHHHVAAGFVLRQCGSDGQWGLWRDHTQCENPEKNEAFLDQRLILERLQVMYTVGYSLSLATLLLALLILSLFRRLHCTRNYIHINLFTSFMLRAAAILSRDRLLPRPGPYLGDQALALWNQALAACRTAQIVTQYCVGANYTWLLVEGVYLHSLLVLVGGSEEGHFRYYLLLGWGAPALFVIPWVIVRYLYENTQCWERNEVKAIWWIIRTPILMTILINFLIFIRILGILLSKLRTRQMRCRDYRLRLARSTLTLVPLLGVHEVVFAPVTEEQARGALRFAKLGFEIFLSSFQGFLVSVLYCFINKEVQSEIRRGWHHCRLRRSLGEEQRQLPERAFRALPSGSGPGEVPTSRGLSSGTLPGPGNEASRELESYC

The target of assay [6] is T3, 5-hydroxytryptamine receptor 2B.
Assay [7] deals with T6, Neuropeptide Y receptor type 2 (Homo sapiens, UniProt P49146).
T6 sequence (P49146 whole entry): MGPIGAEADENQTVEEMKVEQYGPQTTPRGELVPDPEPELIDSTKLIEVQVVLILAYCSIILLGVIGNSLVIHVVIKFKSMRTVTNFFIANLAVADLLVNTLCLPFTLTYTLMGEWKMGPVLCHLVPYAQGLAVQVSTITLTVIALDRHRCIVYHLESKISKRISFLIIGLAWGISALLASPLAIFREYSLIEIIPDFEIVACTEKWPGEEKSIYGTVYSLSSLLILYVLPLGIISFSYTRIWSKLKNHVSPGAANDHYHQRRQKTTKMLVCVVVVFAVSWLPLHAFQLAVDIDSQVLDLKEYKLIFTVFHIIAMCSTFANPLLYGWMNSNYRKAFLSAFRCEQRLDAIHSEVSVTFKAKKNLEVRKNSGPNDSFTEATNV

Assay [8] concerns the target Neurotensin receptor type 1 (Homo sapiens, UniProt P30989).
The next assay concerns the target D(1A) dopamine receptor (Homo sapiens, UniProt P21728).

Each structure is given as a SMILES string. Where only a bound is given, the exact number is not on record here.
Note: assay procedure not described here.

Cannabinoid receptor 1, sequence (P21554 whole entry): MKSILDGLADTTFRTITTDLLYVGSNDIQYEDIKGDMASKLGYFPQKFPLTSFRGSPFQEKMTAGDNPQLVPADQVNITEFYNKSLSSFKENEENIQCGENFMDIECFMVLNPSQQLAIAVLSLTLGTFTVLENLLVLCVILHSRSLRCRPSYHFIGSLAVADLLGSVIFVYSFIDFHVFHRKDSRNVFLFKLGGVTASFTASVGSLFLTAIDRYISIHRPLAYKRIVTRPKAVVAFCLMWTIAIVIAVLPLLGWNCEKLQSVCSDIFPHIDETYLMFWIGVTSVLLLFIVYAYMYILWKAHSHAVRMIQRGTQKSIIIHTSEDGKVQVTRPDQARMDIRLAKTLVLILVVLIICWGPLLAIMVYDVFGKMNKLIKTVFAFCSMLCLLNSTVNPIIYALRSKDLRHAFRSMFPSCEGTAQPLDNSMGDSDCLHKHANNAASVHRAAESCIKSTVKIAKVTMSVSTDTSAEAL
D(1A) dopamine receptor, sequence (P21728 whole entry): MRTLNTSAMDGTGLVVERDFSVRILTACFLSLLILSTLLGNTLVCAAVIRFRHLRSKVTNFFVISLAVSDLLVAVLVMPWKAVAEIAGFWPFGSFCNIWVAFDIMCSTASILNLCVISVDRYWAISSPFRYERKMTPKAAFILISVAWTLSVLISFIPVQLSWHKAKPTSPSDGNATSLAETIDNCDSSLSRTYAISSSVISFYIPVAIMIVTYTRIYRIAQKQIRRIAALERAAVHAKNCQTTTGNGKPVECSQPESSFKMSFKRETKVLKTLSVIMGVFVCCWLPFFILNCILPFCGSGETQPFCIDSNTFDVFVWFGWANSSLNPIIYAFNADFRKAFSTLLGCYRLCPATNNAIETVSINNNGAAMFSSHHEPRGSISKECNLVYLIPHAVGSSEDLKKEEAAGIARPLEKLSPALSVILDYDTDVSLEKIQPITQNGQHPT
Neurotensin receptor type 1, sequence (P30989 whole entry): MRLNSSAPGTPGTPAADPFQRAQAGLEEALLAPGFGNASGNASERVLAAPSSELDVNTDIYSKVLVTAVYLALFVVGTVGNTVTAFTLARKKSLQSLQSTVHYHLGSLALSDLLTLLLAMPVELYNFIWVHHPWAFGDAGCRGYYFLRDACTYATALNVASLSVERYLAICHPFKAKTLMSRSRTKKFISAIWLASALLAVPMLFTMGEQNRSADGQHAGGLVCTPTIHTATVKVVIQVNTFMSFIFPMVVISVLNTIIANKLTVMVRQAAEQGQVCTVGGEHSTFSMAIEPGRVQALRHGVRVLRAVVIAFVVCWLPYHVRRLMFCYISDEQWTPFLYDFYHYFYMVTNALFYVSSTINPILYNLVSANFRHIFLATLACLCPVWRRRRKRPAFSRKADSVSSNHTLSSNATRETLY
Sodium-dependent serotonin transporter, sequence (P31645 whole entry): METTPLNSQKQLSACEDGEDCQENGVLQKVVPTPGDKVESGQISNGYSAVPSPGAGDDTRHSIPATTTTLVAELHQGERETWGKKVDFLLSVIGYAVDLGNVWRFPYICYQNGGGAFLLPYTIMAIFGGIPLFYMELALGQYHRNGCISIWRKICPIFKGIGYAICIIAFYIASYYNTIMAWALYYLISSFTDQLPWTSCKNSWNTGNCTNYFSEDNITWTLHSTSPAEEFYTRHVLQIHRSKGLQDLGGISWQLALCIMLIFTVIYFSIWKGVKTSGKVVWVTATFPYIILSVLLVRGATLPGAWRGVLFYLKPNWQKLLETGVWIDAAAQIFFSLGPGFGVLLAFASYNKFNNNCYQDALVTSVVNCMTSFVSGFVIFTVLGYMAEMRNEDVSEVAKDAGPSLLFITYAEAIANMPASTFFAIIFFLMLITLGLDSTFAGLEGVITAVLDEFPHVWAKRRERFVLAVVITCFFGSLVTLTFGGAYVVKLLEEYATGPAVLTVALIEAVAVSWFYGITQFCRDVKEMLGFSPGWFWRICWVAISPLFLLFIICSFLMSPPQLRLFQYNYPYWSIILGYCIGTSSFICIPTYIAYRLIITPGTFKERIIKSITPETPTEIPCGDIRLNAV
T3 sequence (P41595 whole entry): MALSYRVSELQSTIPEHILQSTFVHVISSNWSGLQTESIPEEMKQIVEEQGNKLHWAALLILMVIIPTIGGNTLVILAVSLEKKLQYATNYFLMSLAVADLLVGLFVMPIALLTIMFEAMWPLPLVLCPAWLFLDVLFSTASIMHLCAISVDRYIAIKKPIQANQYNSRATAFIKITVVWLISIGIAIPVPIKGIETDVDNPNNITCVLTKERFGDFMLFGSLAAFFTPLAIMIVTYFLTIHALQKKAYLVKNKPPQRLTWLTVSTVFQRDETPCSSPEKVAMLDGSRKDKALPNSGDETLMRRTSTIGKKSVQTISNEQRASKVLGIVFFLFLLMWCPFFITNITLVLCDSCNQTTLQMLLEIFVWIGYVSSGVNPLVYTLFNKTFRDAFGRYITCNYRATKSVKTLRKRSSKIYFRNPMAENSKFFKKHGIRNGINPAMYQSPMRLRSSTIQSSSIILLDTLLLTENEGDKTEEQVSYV

Turning to `CCC(CC)(CC(=O)Nc1cccc(/C=C/c2nc(C3CCC3)cs2)c1)C(=O)O`, the AC50 (at B2 bradykinin receptor; in [1]) was above 30 µM throughout.

As for `CC[C@@H](C(N)=O)N1CCCC1=O`, the concentration at half-maximal activity (AC50) (in assay [2]; at B2 bradykinin receptor; in assay [3]; in [1]; in assay [4]) was above 30 µM in each case.

For the compound `CCCCCNC(=N)N/N=C/c1c[nH]c2ccc(OC)cc12` [TEGASEROD], the AC50 in [2] is above 30 µM; at B2 bradykinin receptor, above 30 µM; on Cannabinoid receptor 1, 10 µM; in [5], above 30 µM; in assay [3], 0.343 µM; in assay [6], 0.0206 µM. In addition, the AC50 was above 30 µM in [7]; above 30 µM in assay [8]; 3.47 µM in assay [1]; above 30 µM in assay [4]; 0.942 µM on D(1A) dopamine receptor.

Regarding `COc1cc2nc(N3CCN(C(=O)c4ccco4)CC3)nc(N)c2cc1OC` [PRAZOSIN], the concentration at half-maximal activity (AC50) at B2 bradykinin receptor was above 30 µM; at Cannabinoid receptor 1, above 10 µM; in assay [5], above 30 µM; in assay [3] it was 26 µM; in assay [6], 2.57 µM; in assay [7], above 30 µM. For the same compound, the half-maximal activity concentration (AC50) in [8] was above 30 µM; in assay [4], above 10 µM; at D(1A) dopamine receptor, above 10 µM.

Turning to `COc1ccccc1N1CCN(CC(O)COc2cccc3ccccc23)CC1` (centres undefined) [NAFTOPIDIL], the half-maximal activity concentration (AC50) in [2] was above 30 µM; in assay [3] it was 0.84 µM; in [6], 0.047 µM; in assay [4], above 30 µM.

As to `O=[N+]([O-])O[C@@H]1CO[C@H]2[C@@H]1OC[C@@H]2O` [ISOSORBIDE MONONITRATE], the AC50 in assay [2] was above 10 µM; at B2 bradykinin receptor, above 30 µM; on Cannabinoid receptor 1, above 10 µM; in assay [5], above 30 µM; in assay [3], above 10 µM; in assay [6] it was above 10 µM. Moreover, the AC50 in assay [7] is above 30 µM; in assay [8], above 30 µM; in [1], above 10 µM; in assay [4], above 10 µM; on D(1A) dopamine receptor, above 10 µM.

`CN1CCN(C2=Nc3ccccc3Sc3ccc(Cl)cc32)CC1` [CLOTHIAPINE]: the AC50 in assay [2] was above 30 µM; in assay [3], 1.3 µM; in assay [4], above 30 µM.

As to `O=[N+]([O-])c1cn2c(n1)OC[C@@H](OCc1ccc(OC(F)(F)F)cc1)C2` [PRETOMANID], the half-maximal activity concentration (AC50) on B2 bradykinin receptor was above 30 µM; in assay [6], above 10 µM; in [7] it was above 30 µM; in assay [8], above 10 µM; in assay [1], above 10 µM; on D(1A) dopamine receptor, above 10 µM.

On to `CN(C)CCC=C1c2ccccc2C=Cc2ccccc21` [CYCLOBENZAPRINE], for which the concentration at half-maximal activity (AC50) in assay [2] was above 10 µM; at B2 bradykinin receptor, above 30 µM; on Cannabinoid receptor 1, above 10 µM; in assay [5] it was above 30 µM; in assay [3], 1.25 µM; in [7] it was above 30 µM. Also, the AC50 in assay [8] is above 30 µM; in [4], above 10 µM.

For `C=CCN1C[C@H](C(=O)N(CCCN(C)C)C(=O)NCC)C[C@@H]2c3cccc4[nH]cc(c34)C[C@H]21` [CABERGOLINE], the AC50 at B2 bradykinin receptor is above 10 µM; in [6], 0.0086 µM; in [1] it was 23.4 µM; in assay [4], above 10 µM.

Consider `CCOc1ccc(Cc2cc([C@@H]3O[C@H](CO)[C@@H](O)[C@H](O)[C@H]3O)ccc2Cl)cc1` [DAPAGLIFLOZIN], for which the concentration at half-maximal activity (AC50) on B2 bradykinin receptor is above 30 µM; on Cannabinoid receptor 1 it was above 10 µM; in assay [6], above 10 µM; in assay [4], above 10 µM; at D(1A) dopamine receptor, above 10 µM.

As for `CCOc1ccccc1OCC1CNCCO1` (centres undefined) [VILOXAZINE], the concentration at half-maximal activity (AC50) in [2] is above 10 µM; at B2 bradykinin receptor, above 30 µM; on Cannabinoid receptor 1, above 10 µM; in [5], above 30 µM; in [3], above 10 µM; in [6] it was 2.34 µM. The AC50 in [7] is above 30 µM; in assay [8], above 30 µM; in [4], above 10 µM; at D(1A) dopamine receptor it was above 10 µM.

`CN(C)CC/C=C1\c2ccccc2CSc2ccccc21` [DOTHIEPIN]: the AC50 in [2] was above 30 µM; on B2 bradykinin receptor it was above 30 µM; in assay [3] it was 3.6 µM.

Consider `Cc1cc(C)c(NC(=O)CN(CC(=O)O)CC(=O)O)c(C)c1Br` [MEBROFENIN], for which the concentration at half-maximal activity (AC50) in [2], in [3] and in assay [4] was above 30 µM in each case.

As for `CCCC1O[C@@H]2C[C@H]3[C@@H]4CCC5=CC(=O)C=C[C@]5(C)[C@H]4[C@@H](O)C[C@]3(C)[C@]2(C(=O)CO)O1` (some centres undefined) [BUDESONIDE], the AC50 (in assay [2]; on B2 bradykinin receptor; at Cannabinoid receptor 1; in [3]; in assay [4]) was above 10 µM throughout.

As to `COC1=C(OC)C(=O)C(C/C=C(\C)CC/C=C(\C)CC/C=C(\C)CC/C=C(\C)CC/C=C(\C)CC/C=C(\C)CC/C=C(\C)CC/C=C(\C)CC/C=C(\C)CCC=C(C)C)=C(C)C1=O` [UBIDECARENONE], the AC50 in assay [2], in [3] and in [4] was above 30 µM throughout.

With `Cc1oc(=O)oc1CN1CCN(c2cc3c(cc2F)c(=O)c(C(=O)O)c2n3C(C)S2)CC1` (centres undefined) [PRULIFLOXACIN], the concentration at half-maximal activity (AC50) in [2], in assay [3] and in assay [4] was above 30 µM in each case.

On to `CN(C)CCc1c[nH]c2ccc(C[C@H]3COC(=O)N3)cc12` [ZOLMITRIPTAN], for which the half-maximal activity concentration (AC50) (in assay [2]; at B2 bradykinin receptor; in [3]; in assay [1]; in assay [4]) was above 30 µM throughout.

As to `CC[C@H]1CN2CCc3cc(OC)c(OC)cc3[C@@H]2C[C@@H]1C[C@H]1NCCc2cc(OC)c(OC)cc21` [EMETINE], the half-maximal activity concentration (AC50) (in assay [2]; on B2 bradykinin receptor; in assay [3]; in assay [4]) was above 30 µM in each case.

The values are drawn from ChEMBL document CHEMBL5291721, “A preclinical secondary pharmacology resource illuminates target-adverse drug reaction associations of marketed drugs” (Nat Commun, 2023).
